Test results as given in BindingDB's records for doi:10.7270/Q2ZC817P (The Scripps Research Institute Molecular Screening Center, 2007).

target: Sphingosine 1-phosphate receptor 1 (Homo sapiens, UniProt P21453); assay: S1P1 agonism potentiation – cell-based, potentiator mode, 60K MLSMR set, dose response (AID 466); details: not given
Sequence (P21453 whole entry): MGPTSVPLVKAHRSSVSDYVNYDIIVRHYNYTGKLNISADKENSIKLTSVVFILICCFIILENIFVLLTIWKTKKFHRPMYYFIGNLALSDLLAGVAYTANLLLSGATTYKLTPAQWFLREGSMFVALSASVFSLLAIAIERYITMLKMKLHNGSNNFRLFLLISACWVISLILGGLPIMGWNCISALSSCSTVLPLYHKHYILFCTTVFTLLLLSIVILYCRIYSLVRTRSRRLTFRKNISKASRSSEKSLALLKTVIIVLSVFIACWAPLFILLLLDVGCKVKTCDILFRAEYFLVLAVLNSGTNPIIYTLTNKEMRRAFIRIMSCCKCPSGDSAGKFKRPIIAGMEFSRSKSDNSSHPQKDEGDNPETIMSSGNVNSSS

| SMILES | EC50 [µM] |
| --- | --- |
| Cc1nn(Cc2ccc(Cl)c(Cl)c2)c(C)c1NC(=O)c1cc(CC(C)C)on1 [MLS000116412] | 9.37 |
| Cc1[nH]nc2c1C1(C(=O)N(Cc3ccc(Cl)cc3)c3ccccc31)C(C#N)C(=N)O2 (stereo not drawn) [6-amino-1'-[(4-chlorophenyl)methyl]-3-methyl-2'-oxo-5-spiro[2H-pyrano[2,3-c]pyrazole-4,3'-indole]carbonitrile] | 43.6 |
| Clc1ccccc1C1=Nn2c(nnc2-c2ccncc2)SC1 [6-(2-chlorophenyl)-3-(4-pyridyl)-7H-[1,2,4]triazolo[3,4-b][1,3,4]thiadiazine] | 5.66 |
| Oc1ccc(-c2nnc(SCC3CCCCC3)o2)cc1 [4-(5-Cyclohexylmethylsulfanyl-[1,3,4]oxadiazol-2-yl)-phenol] | 0.437 |
| CC(C)c1cc(C(=O)N2CCN(C(c3ccccc3)c3ccccc3)CC2)no1 [(4-benzhydrylpiperazin-1-yl)-(5-propan-2-yl-1,2-oxazol-3-yl)methanone] | 8.42 |
| CCc1nnc(NC(=O)C2CCCCC2)s1 [MLS000104554] | > 95 |
| CC(C)COC(=O)NCCOC(=O)Nc1cccc(Cl)c1 [2-(2-methylpropoxycarbonylamino)ethyl N-(3-chlorophenyl)carbamate] | 8.05 |
| O=S(=O)(CCSc1ccccn1)c1nc2ccccc2s1 [2-(2-pyridin-2-ylsulfanylethylsulfonyl)-1,3-benzothiazole] | 9.83 |
| COc1ccccc1-c1nc(-c2cccc(C)c2)no1 [5-(2-methoxyphenyl)-3-(3-methylphenyl)-1,2,4-oxadiazole] | 0.999 |
| COc1ccc(CN=O)cc1COc1ccc(NC(C)=O)cc1 [MLS000111933] | > 95 |
| Cc1noc(/C=C/N(C)C)c1S(=O)(=O)N1CCc2ccccc21 [(E)-2-[4-(2,3-dihydroindol-1-ylsulfonyl)-3-methyl-1,2-oxazol-5-yl]-N,N-dimethyl-ethenamine] | > 95 |
| N#CCCS(=O)(=O)c1nnnn1-c1ccccc1 [3-(1-phenyltetrazol-5-yl)sulfonylpropanenitrile] | 3.55 |
| CCn1c(-c2cccc(Cl)c2)n[nH]c1=S [SMR000104244] | > 95 |

same assay, conditions: inactive by the depositor's call

| SMILES | EC50 [µM] |
| --- | --- |
| COc1ccccc1-c1cc(C(=O)Nc2cc(C)nn2-c2ccccc2)no1 [5-(2-methoxyphenyl)-N-(3-methyl-1-phenyl-1H-pyrazol-5-yl)isoxazole-3-carboxamide] | 57.7 |
| CC(=O)N1CCCc2cc(S(=O)(=O)NCCC3=CCCCC3)ccc21 [1-acetyl-N-(2-cyclohex-1-en-1-ylethyl)-1,2,3,4-tetrahydroquinoline-6-sulfonamide] | 13.4 |
| COc1ccc(-c2cc(C(=O)NC3CCCC3)no2)cc1OC [MLS000087117] | 13.7 |
| Cc1cc(C(=O)COC(=O)c2csc3c2CCCC3)c(C)n1C [4,5,6,7-tetrahydro-1-benzothiophene-3-carboxylic acid [2-oxo-2-(1,2,5-trimethyl-3-pyrrolyl)ethyl] ester] | 17.5 |
| CCCCCn1c(=O)c(C(=O)NCc2ccncc2)c(O)c2ccccc21 [1-amyl-2-hydroxy-4-keto-N-(4-pyridylmethyl)quinoline-3-carboxamide] | 24.4 |
| Brc1ccc2ncnc(Nc3ccc(N4CCOCC4)cc3)c2c1 [(6-bromoquinazolin-4-yl)-(4-morpholinophenyl)amine] | 15.1 |
| CCC(C)c1ccc2oc(-c3ccc(NC(=O)c4nnc[nH]4)cc3)nc2c1 (stereo not drawn) [N-[4-(5-sec-butyl-1,3-benzoxazol-2-yl)phenyl]-1H-1,2,4-triazole-3-carboxamide] | 12.7 |
| O=C(CSc1ncnc2c1oc1ccccc12)N1CCCc2ccccc21 [2-(4-benzofuro[3,2-d]pyrimidinylthio)-1-(3,4-dihydro-2H-quinolin-1-yl)ethanone] | 10.8 |
| O=C(C1CC1)N1CCc2cc(S(=O)(=O)NCC3COc4ccccc4O3)ccc21 (stereo not drawn) [1-(cyclopropanecarbonyl)-N-(2,3-dihydro-1,4-benzodioxin-3-ylmethyl)-2,3-dihydroindole-5-sulfonamide] | 13.8 |
| Cc1cccc(N2CCN(C(=O)C3CCCN(S(=O)(=O)c4cccc5cccnc45)C3)CC2)c1C (stereo not drawn) [MLS000120299] | 16.1 |
